Laboratory results published in ChEMBL document CHEMBL3507680, “University of Dundee, Gates Library screen for HepG2 cell viability”.

Assay: Human HepG2 cell viability assay in 384 well format
Format: toxicity, cell-based
Design: dose 125 nL, time 70.5 hour; cytotoxicity at 70.5 h: concentration not given beside the values
Details: HepG2 cells, read-out: Inhibition

Cn1cc(C(=O)NC2CCCC2)c(-c2cccnc2)n1
cytotoxicity at 70.5 h: -10.4%

NC(=O)c1cccc(CCNCc2cnc(-c3cccs3)s2)c1
cytotoxicity at 70.5 h: -12.1%

Cc1cc(C)n(-c2ccc(C(C)NS(N)(=O)=O)cc2)n1 (configuration not stated)
cytotoxicity at 70.5 h: -11.9%

Cn1c(C(N)=O)ccc1-c1ccccc1
cytotoxicity at 70.5 h: 6.66%

Cc1cc(C)n(-c2ccc(C(C)NS(=O)(=O)CCCS(C)(=O)=O)cc2)n1 (configuration not stated)
cytotoxicity at 70.5 h: 19.6%

O=C1C(N2CCN(c3ccccc3Cl)CC2)CCN1C1CCOCC1 (configuration not stated)
cytotoxicity at 70.5 h: -5.64%

CC/C=C(/C)C(=O)NCc1ccc(OC)nc1
cytotoxicity at 70.5 h: -13.3%

CC(CCNC(=O)N(C)CC1CCOCC1)N1CCCCC1 (configuration not stated)
cytotoxicity at 70.5 h: -7.97%

O=C(Nc1ccc(-n2cccn2)c(F)c1)C1CCN(C(=O)C2CC2)CC1
cytotoxicity at 70.5 h: -0.357%

CC(=O)N(C)CC(=O)Nc1ccc(C)cc1OCc1ccccc1
cytotoxicity at 70.5 h: -1.76%

Cc1ccc(-c2n[nH]cc2CNCC2CCS(=O)(=O)C2)o1 (configuration not stated)
cytotoxicity at 70.5 h: 11.2%

CC(=O)NCCCC(=O)NC1(c2ccc(Cl)c(Cl)c2)CC1
cytotoxicity at 70.5 h: 2.93%

CS(=O)(=O)NCC(=O)NC1(c2ccc(Cl)c(Cl)c2)CC1
cytotoxicity at 70.5 h: -2.05%

Cc1cc(C2CCCN2c2ncc(C(N)=O)cc2Cl)no1 (configuration not stated)
cytotoxicity at 70.5 h: -0.208%

CCS(=O)(=O)CC(=O)NC1(c2ccc(Cl)c(Cl)c2)CC1
cytotoxicity at 70.5 h: -2.35%

Cn1cc(C2CCCN2c2ncnc3[nH]ccc23)cn1 (configuration not stated)
cytotoxicity at 70.5 h: 5.41%

Cc1nn(C)c(C)c1C1CCCN1c1ncnc2[nH]ccc12 (configuration not stated)
cytotoxicity at 70.5 h: 0.0825%

COc1ccc(C(=O)NCCCC2(C3OCCO3)CCOCC2)cc1
cytotoxicity at 70.5 h: -1.34%

CN(C(=O)Nc1ccccn1)C1CCCN(c2ccccc2)C1=O (configuration not stated)
cytotoxicity at 70.5 h: 3.77%

CCN(CCCNc1ncnc2cc(F)c(F)cc12)S(C)(=O)=O
cytotoxicity at 70.5 h: -1.36%

N#Cc1cnc(NCCCN2C(=O)COc3ccccc32)c(Cl)c1
cytotoxicity at 70.5 h: 2.01%

COc1c(NC(=O)C(C)CCOc2ccccc2)c(C)nn1C (configuration not stated)
cytotoxicity at 70.5 h: 7.42%

Cc1nn(C)c(Cl)c1C1CCCN1c1ncnc2[nH]ccc12 (configuration not stated)
cytotoxicity at 70.5 h: 12.9%

C1CCCN(c2nc(C3CC3)no2)CC1
cytotoxicity at 70.5 h: 1.49%

CC(C)c1nsc(N2CCn3c(nnc3C(F)(F)F)C2)n1
cytotoxicity at 70.5 h: 4.03%

Cc1ccc(NC(=O)N(CCO)CCO)c(OCc2ccccc2)c1
cytotoxicity at 70.5 h: 10.5%

Cc1nnc(Cn2cc(I)cc(C)c2=O)o1
cytotoxicity at 70.5 h: 3.35%

CN1C(=O)CCN(C(=O)C2CCCCC2)c2ccccc21
cytotoxicity at 70.5 h: 9.73%

COc1ccc2c(ccn2CC(=O)N2CCCC2c2cnn(C)c2)c1 (configuration not stated)
cytotoxicity at 70.5 h: 0.452%

N#Cc1c(Cl)nsc1NCCCN1C(=O)COc2ccccc21
cytotoxicity at 70.5 h: 8.75%

C1CCC(N2CCCN(c3nc(C4CC4)no3)CC2)C1
cytotoxicity at 70.5 h: 0.93%

C1CN(c2nc(C3CC3)no2)CCN(C2CCOCC2)C1
cytotoxicity at 70.5 h: -0.117%

CCCNC(=O)C(C)Nc1cccc(Oc2ccc(C#N)cn2)c1 (configuration not stated)
cytotoxicity at 70.5 h: 24.3%

CNS(=O)(=O)CCCN1CCCN(Cc2ccccc2)CC1C (configuration not stated)
cytotoxicity at 70.5 h: 14.3%

COC(=O)CCCNC(=O)Nc1ccccc1OC
cytotoxicity at 70.5 h: 12.5%

Cc1ccc(C)c(CS(=O)(=O)CC(=O)NC(C)c2ccc(F)cc2F)c1 (configuration not stated)
cytotoxicity at 70.5 h: 8.01%

Cc1ccc(C)c(CS(=O)(=O)CC(=O)Nc2ccc(F)cc2F)c1
cytotoxicity at 70.5 h: -7.2%

O=C(CNC(=O)c1cnc2ccccc2c1O)NCCCn1ccnc1
cytotoxicity at 70.5 h: -16.5%

O=C(CCCNC(=O)Nc1ccc(F)cc1F)Nc1cn[nH]c1
cytotoxicity at 70.5 h: -5.08%

CN(CC(=O)NC(Cc1ccccc1)C1CCCC1)S(C)(=O)=O (configuration not stated)
cytotoxicity at 70.5 h: -3.31%

COc1ccccc1NC(=O)NCCCC(=O)Nc1cn[nH]c1
cytotoxicity at 70.5 h: 13.3%

COc1cc(C(C#N)NC(=O)CC2=CCCCC2)cc(OC)c1OC (configuration not stated)
cytotoxicity at 70.5 h: -5.49%

Cc1n[nH]cc1CNC1(c2ccc(F)cc2)CCCC1
cytotoxicity at 70.5 h: -7.33%

Cc1n[nH]cc1CNC1(Cc2ccc(Br)cc2)CCCCC1
cytotoxicity at 70.5 h: -1.97%

CCn1nc(C)cc1C(=O)N1CCOc2ccc(OC)cc21
cytotoxicity at 70.5 h: -4.62%

CNS(=O)(=O)c1csc(C(=O)NCc2sccc2C)c1
cytotoxicity at 70.5 h: -4.77%

CCCc1cc(NC(=O)c2cccc(N3CCCNC3=O)c2)n[nH]1
cytotoxicity at 70.5 h: -6.61%

CNS(=O)(=O)c1csc(C(=O)N(C)Cc2ccccc2C)c1
cytotoxicity at 70.5 h: 0.0278%

CC1CCN(CC(O)CNc2ccccn2)CC1 (configuration not stated)
cytotoxicity at 70.5 h: -6.21%

CC1CCN(CC(O)CNc2ccc(Cl)cn2)CC1 (configuration not stated)
cytotoxicity at 70.5 h: -1.66%

OC(CNc1ccc(Cl)cn1)CN1CCOCC1 (configuration not stated)
cytotoxicity at 70.5 h: 2.86%

COc1ccc(C(C#N)NC(=O)Cc2ccc(F)c(F)c2)c(OC)c1 (configuration not stated)
cytotoxicity at 70.5 h: -3.6%

CCn1nc(C(C)C)cc1C(=O)N1CCOc2ccc(OC)cc21
cytotoxicity at 70.5 h: -5.2%

CC(C)Cc1nc(CS(=O)(=O)c2ccccc2)no1
cytotoxicity at 70.5 h: -2.63%

Cc1nc(CN2CCC23CCN(Cc2ccoc2)CC3)cs1
cytotoxicity at 70.5 h: -6.82%

Cc1nc(CN2CCC23CCN(Cc2ccco2)CC3)cs1
cytotoxicity at 70.5 h: -5.68%

Cc1nc(CN2CCC3(C2)CN(Cc2ccco2)C3)cs1
cytotoxicity at 70.5 h: -3.68%

Cc1ccc(CNCC2Cn3nncc3CO2)s1 (configuration not stated)
cytotoxicity at 70.5 h: -4.83%

COCC(=O)N1CC(C(=O)NCC2CC2)C2(CCOCC2)C1 (configuration not stated)
cytotoxicity at 70.5 h: -3.19%

Cc1nnc([C@@]23CCO[C@@H]2CCN(S(=O)(=O)c2ccccc2)C3)o1
cytotoxicity at 70.5 h: -7.57%

O=C1CC[C@@H]2[C@@H](CCN2S(=O)(=O)C2CC2)N1CC1CC1
cytotoxicity at 70.5 h: 18.2%

CCC(=O)N1CCC2(C=C(C(=O)N(C)C)c3ccccc32)CC1
cytotoxicity at 70.5 h: 14%

CCC(=O)N1CCC2(C=C(C(=O)N3CCCC3)c3ccccc32)CC1
cytotoxicity at 70.5 h: 8.56%

COCCN1C(=O)CC[C@@H]2[C@H]1CCN2S(=O)(=O)c1cccs1
cytotoxicity at 70.5 h: 20.8%

Cc1noc([C@]23COC[C@H]2CN(C(=O)COC2CCCC2)C3)n1
cytotoxicity at 70.5 h: -5.12%

Cc1noc([C@]23COC[C@H]2CN(C(=O)N2CCCC2)C3)n1
cytotoxicity at 70.5 h: -6.89%

O=C(NCC1CC2(CO1)CN(c1nncs1)C2)C1CCC1 (configuration not stated)
cytotoxicity at 70.5 h: -3.65%

Cc1ccc(N2CCc3ncnc(N(C)C)c3CC2)nn1
cytotoxicity at 70.5 h: -6.25%

COCC1c2nnn(C)c2CCN1C(=O)COc1ccccc1C (configuration not stated)
cytotoxicity at 70.5 h: -4.54%

COC1COC2(CCN(C(=O)c3ccc4ccccc4c3)CC2)C1 (configuration not stated)
cytotoxicity at 70.5 h: -4.73%

COc1ncccc1CN1Cc2nccn2CC(CN2CCCC2)C1 (configuration not stated)
cytotoxicity at 70.5 h: -2.53%

COc1ncccc1CN1Cc2nccn2CC(Cn2cccn2)C1 (configuration not stated)
cytotoxicity at 70.5 h: -5.37%

Cc1cc(CN2CC[C@H]3C[C@H](c4nc(C5CC5)cs4)O[C@@H]3C2)no1
cytotoxicity at 70.5 h: -4.1%

CN(C)C(=O)CN1CCc2ncnc(N(C)C)c2CC1
cytotoxicity at 70.5 h: -6.04%

COCC1c2c(cnn2C)CCN1C(=O)c1cccn1C (configuration not stated)
cytotoxicity at 70.5 h: -6.36%

O=C(NCC1CC2(CO1)CN(Cc1cccs1)C2)C1CCC1 (configuration not stated)
cytotoxicity at 70.5 h: 19.9%

Cc1ccc(CN2Cc3nccn3CC(Cn3cccn3)C2)s1 (configuration not stated)
cytotoxicity at 70.5 h: -4.41%

CC(=O)N1CCO[C@@H]2CN(Cc3ccccc3Cl)C[C@@H]2C1
cytotoxicity at 70.5 h: -5.68%

Cc1noc([C@]23COC[C@H]2CN(C(=O)CN(C)C)C3)n1
cytotoxicity at 70.5 h: -4.74%

Cn1ccc(CN2CCC3(CCCN3CC3CC3)CC2)n1
cytotoxicity at 70.5 h: -6.07%

Cn1cc(CN2C[C@H]3CCC[C@@]3(COc3ccccn3)C2)cn1
cytotoxicity at 70.5 h: -3.17%

CN(Cc1ccccn1)C(=O)[C@H]1CO[C@H]2CCN(CC3CC3)C[C@H]2C1
cytotoxicity at 70.5 h: -5.92%
